In patent US20200038399A1, “FORMULATIONS, METHODS, KIT, AND DOSAGE FORMS FOR TREATING BACTERIAL INFECTION” (Motif BioSciences Inc., priority 2016, published 2020):
Where “and” joins values, the source holds several entries; their conditions need not be identical. Equal values may be shown once.

How the values were obtained:
[1] = system: Pneumocystis jirovecii; experiment: in vivo Pneumocystis pneumonia model, corticosteroid-treated rats; conditions: once a day for 10 days; for Mean % + SD (inhibition of cysts, TBO) / Mean % + SD (inhibition of total parasites, Giemsa): group mean; for Total cysts (TBO) / Total parasites (Giemsa): rat lung; for Total cysts (TBO) / Total parasites (Giemsa) / % of inhibition vs Control (total parasites, Giemsa) / % of inhibition vs control (cysts, TBO): single rat
Description: Compound solutions were prepared just before use.
The drugs were given once a day for 10 consecutive days. The final concentration of DMSO in diluted drug solutions was between 1.5 and 15%. Control animals were dosed with sterile water with 15% of DMSO. At the end of the experiment, therapeutic efficacy was assessed by counting P. jirovecii in lung homogenates and comparing the counts with those of the untreated controls. Twenty-four hours after the end of the treatment, animals were sacrificed and the lung homogenized in a Stomacher-400 blender as previously described (European Concerted Action on Pneumocystis Research. Parasitology Today 12: 245-9, 1996, the entire disclosure of which is herein incorporated by reference). Parasite quantitation was performed on air-dried smears stained with toluidine blue 0 (cystic forms) or RAL-555 stains (vegetative, precystic and cystic forms).

[2] = system: S. aureus 101; experiment: MIC determination; assay type: cell-based, Staphylococcus aureus; conditions: Staphylococcus aureus, 101, 18 h; read-out: Minimum inhibitory concentrations (MIC)
Method in brief: (§1)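 K. pneumoniae and S. aureus grew in cation-adjusted Mueller-Hinton broth in ambient air. H. influenzae used Haemophilus test medium (MHB, yeast extract, NAD, hematin) and M. catarrhalis used Brain Heart Infusion, both under 5% CO2.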

[3] = in vivo; cited from earlier work
[4] = system: S. pneumoniae 1/1; experiment: MIC determination; assay type: cell-based, Streptococcus pneumoniae; conditions: Streptococcus pneumoniae; S. pneumoniae 1/1; 18 hours at 37° C., 5% CO2; read-out: Minimum inhibitory concentrations (MIC)
[5] = system: Haemophilus influenzae ATCC 49766; experiment: MIC determination; assay type: cell-based; conditions: Haemophilus influenzae, ATCC49766; H. Influenza 49766; 18 hours at 37° C., 5% CO2; read-out: Minimum inhibitory concentrations (MIC)
Method in brief: as §1

[6] = system: Moraxella catarrhalis RA 21; experiment: MIC determination; assay type: cell-based; conditions: Moraxella catarrhalis, RA21; M. catarrhalis RA 21; 18 hours at 37° C., 5% CO2; read-out: Minimum inhibitory concentrations (MIC)
Method in brief: as §1

[7] = system: Staphylococcus aureus ATCC 25923; experiment: MIC determination; assay type: cell-based; conditions: Staphylococcus aureus, ATCC25923; S. aureus 25923; 18 hours at 37° C.; read-out: Minimum inhibitory concentrations (MIC)
Method in brief: as §1

[8] = system: Streptococcus pneumoniae ATCC 49619; experiment: MIC determination; assay type: cell-based; conditions: Streptococcus pneumoniae, ATCC49619; S. pneumoniae 49619; 18 hours at 37° C., 5% CO2; read-out: Minimum inhibitory concentrations (MIC)
[9] = system: Klebsiella pneumoniae ATCC 33495; experiment: MIC determination; assay type: cell-based; conditions: Klebsiella pneumoniae, ATCC33495; K. pneumonia 33495; 18 hours at 37° C.; read-out: Minimum inhibitory concentrations (MIC)
Method in brief: as §1

[10] = system: Pneumocystis jirovecii; experiment: in vitro anti-Pneumocystis susceptibility, broth microdilution in axenic culture; conditions: 4 days
Description: Iclaprim was synthesized at Arpida Ltd. (Münchenstein, Switzerland). TMP and SMX were obtained from Sigma, Spain. […] TMP and SMX solutions were mixed appropriately to obtain a final 1:5-combination. For evaluating the in vitro anti-Pneumocystis activity, the drug stock solutions were diluted in Dulbecco's Modified Eagle's Medium (DMEM, Bio-Whittaker) supplemented with 10% heat-inactivated fetal calf serum (FCS, GIBCO-BRL) to produce the required drug concentrations. […] Compound solutions were prepared just before use.
Corticosteroid-treated conventional laboratory rats were used as an animal model to obtain P. jirovecii organisms. Ten-week-old female Wistar rats (Harlan, France) were immunosuppressed for 3 weeks with dexamethasone (Fortecortin®, Merck) administered in the drinking water (2 mg/liter). Rats were then inoculated with 20×10^6 of cryopreserved parasites using a non-surgical endotracheal method. Dexamethasone treatment was maintained until the end of the experiment. Six to eight weeks' post-inoculation (p.i.) rats were highly infected, without secondary fungal or bacterial infection. Animals were allowed sterile standard food (UAR, France) and water ad libitum.
Six to eight weeks following inoculation, rats were sacrificed and parasite extraction was performed. Briefly, parasites were extracted in Dulbecco's Modified Eagle's Medium (DMEM; Bio-Whittaker) by agitation of lung pieces with a magnetic stirrer. The resulting homogenate was poured successively through gauze, 250 and 63 micron stainless steels filters. After centrifugation, the pellet was resuspended in a hemolytic buffered solution. […] Blood and Sabouraud dextrose agar (Difco) media were inoculated with purified parasites to check for the presence of eventual contaminating pathogens.
In vitro pharmacodynamic properties were determined using the Hill equation (Emax sigmoid model; see below).
In vitro susceptibility studies were performed using the broth microdilution technique. […] All the experiments were carried out in 24-well plates with a final volume of 2 ml of DMEM supplemented with 10% FCS containing a final inoculum of 0.5×10^6 organisms per ml. Plates were then incubated for 4 days in an atmosphere of 5% C0^2 at 37° C. One free-drug control was included in each assay. Parasite quantitation was performed on homogenate smears as described above. All susceptibility assays were set up in triplicate.
Analysis of results. […] Once all the differences between drug-treated and untreated wells were calculated, the concentration-effect relationship was established by using the Hill equation:
The parameters of this pharmacodynamic model were calculated by nonlinear least-squares regression techniques using a commercial software (Sigma Plot).

[11] = system: Staphylococcus aureus AH 1246; experiment: mouse subcutaneous abscess model; assay type: in vivo; conditions: mice; 40 mg/Kg (alone); PO @ 8, 24, 32, 48, 56 hours post infection
Description: Wild type S. aureus ATCC 25923 and its TK-deficient mutant AH 1246 were supplied by Arpida AG, Reinach, Switzerland.
S. aureus strains were grown on TSA plates at 37° C. in 5% CO2. The bacteria concentration was adjusted by re-suspending a portion of the overnight growth of the plate in saline and adjusting a 1:10 dilution of the suspension to achieve an OD625 of 0.1. The adjusted suspension was diluted 1:2 in prepared Cytodex beads (1 gram/50 mL PBS) to a final concentration of 5.0×10^5 CFU/mL. Bacterial enumeration was performed to determine actual concentration of the bacterial inoculum.
CD-1 female mice (weighing 18 to 22 grams) from Charles River Laboratories (Wilmington, Mass.) were acclimated for 5 days prior to start of study. All studies were performed under approved IACUC protocols and conform to OLAW standards. Animals had free access to food and water throughout the study. Animals were provided enrichment and housed 5 per cage.
Mice were injected SC with 0.2 mL of the bacterial-Cytodex inoculum. […] The mice were then euthanized and the abscesses aseptically removed, homogenized, serially diluted and plated for bacterial enumeration.

[12] = 5 mg/kg/d oral, listed as AR-100, 5 mg/kg/day
[13] = 25 mg/kg/d oral, listed as AR-100, 25 mg/kg/day
[14] = 50 mg/kg/d oral, listed as AR-100, 50 mg/kg/day

COc1cc(Cc2cnc(N)nc2N)c2c(c1OC)OC(C1CC1)C=C2 (racemic) [Iclaprim, 5-[(2RS)-2-cyclopropyl-7,8-dimethoxy-2Hchromen-5-ylmethyl] pyrimidine-2,4-diamine]
Mean % + SD (inhibition of cysts, TBO) ([1]; 5 mg/kg/d oral): 69.4 ± 8.4%
Mean % + SD (inhibition of total parasites, Giemsa) ([1]; 5 mg/kg/d oral): 66.9 ± 7.8%
Mean % + SD (inhibition of cysts, TBO) ([1]; 25 mg/kg/d oral): 72.0 ± 30.0%
Mean % + SD (inhibition of total parasites, Giemsa) ([1]; 25 mg/kg/d oral): 79.1 ± 20.9%
Mean % + SD (inhibition of cysts, TBO) ([1]; 50 mg/kg/d oral): 71.7 ± 14.5%
Mean % + SD (inhibition of total parasites, Giemsa) ([1]; 50 mg/kg/d oral): 76.5 ± 13.3%
Total cysts (TBO) [1, 12]: 3.85.10^+7 and 2.60.10^+7 and 4.61.10^+7
Total parasites (Giemsa) [1, 12]: 9.13.10^+8 and 6.56.10^+8
Total cysts (TBO) [1, 13]: 1.72.10^+7 and 8.94.10^+6 and 9.11.10^+7
Total parasites (Giemsa) [1, 13]: 3.94.10^+8 and 3.41.10^+7 and 9.38.10^+8
Total cysts (TBO) [1, 14]: 5.17.10^+7 and 3.38.10^+7 and 5.23.10^+7
Total parasites (Giemsa) [1, 14]: 5.68.10^+8 and 7.71.10^+8 and 2.00.10^+8
% of inhibition vs Control (total parasites, Giemsa) [1, 12]: 58.1% and 69.9% and 72.8%
% of inhibition vs control (cysts, TBO) [1, 12]: 68.0% and 78.4% and 61.7%
% of inhibition vs Control (total parasites, Giemsa) [1, 13]: 81.9% and 98.4% and 90.8%
% of inhibition vs control (cysts, TBO) [1, 13]: 85.7% and 92.6% and 37.7%
% of inhibition vs Control (total parasites, Giemsa) [1, 14]: 74.0% and 64.7% and 90.8%
% of inhibition vs control (cysts, TBO) [1, 14]: 57.1% and 71.9% and 86.1%
MIC [2]: 1 µg/mL
t½ (plasma half-life) [3]: about 2.9 hours
MIC [4]: 1 µg/mL
MIC [5]: 0.25 µg/mL
MIC [6]: 2 µg/mL
MIC [7]: 0.063 µg/mL
MIC [8]: 0.125 µg/mL
MIC [9]: 8 µg/mL
% inhibition vs control ([10]; Iclaprim 5 μg/ml): 5.8 ± 2.6%
Log (total parasites) ([10]; Iclaprim 5 μg/ml): 6.2
Total parasites (× 10^6) ([10]; Iclaprim 5 μg/ml): 1.5 ± 0.04 × 10^6
% inhibition vs control ([10]; Iclaprim 11 μg/ml): 19.3 ± 7.4%
Log (total parasites) ([10]; Iclaprim 11 μg/ml): 6.1
Total parasites (× 10^6) ([10]; Iclaprim 11 μg/ml): 1.3 ± 0.1 × 10^6
% inhibition vs control ([10]; Iclaprim 18 μg/ml): 44.0 ± 6.3%
Log (total parasites) ([10]; Iclaprim 18 μg/ml): 5.9
Total parasites (× 10^6) ([10]; Iclaprim 18 μg/ml): 0.9 ± 0.1 × 10^6
% inhibition vs control ([10]; Iclaprim 24 μg/ml): 58.1 ± 3.1%
Log (total parasites) ([10]; Iclaprim 24 μg/ml): 5.8
Total parasites (× 10^6) ([10]; Iclaprim 24 μg/ml): 0.7 ± 0.05 × 10^6
% inhibition vs control ([10]; Iclaprim 31 μg/ml): 79.3 ± 4.8%
Log (total parasites) ([10]; Iclaprim 31 μg/ml): 5.5
Total parasites (× 10^6) ([10]; Iclaprim 31 μg/ml): 0.3 ± 0.08 × 10^6
% inhibition vs control ([10]; Iclaprim 37 μg/ml): 92.3 ± 1.9%
Log (total parasites) ([10]; Iclaprim 37 μg/ml): 5.1
Total parasites (× 10^6) ([10]; Iclaprim 37 μg/ml): 0.1 ± 0.03 × 10^6
% inhibition vs control ([10]; Iclaprim 44 μg/ml): 98.3 ± 0.72%
Log (total parasites) ([10]; Iclaprim 44 μg/ml): 4.4
Total parasites (× 10^6) ([10]; Iclaprim 44 μg/ml): 0.03 ± 0.01 × 10^6
% inhibition vs control ([10]; Iclaprim 50 μg/ml): 99.7 ± 0.04%
Log (total parasites) ([10]; Iclaprim 50 μg/ml): 3.7
Total parasites (× 10^6) ([10]; Iclaprim 50 μg/ml): 0.01 ± 0.001 × 10^6
% inhibition vs control ([10]; Iclaprim 80 μg/ml): 99.8 ± 0.12%
Log (total parasites) ([10]; Iclaprim 80 μg/ml): 3.4
Total parasites (× 10^6) ([10]; Iclaprim 80 μg/ml): 0.003 ± 0.002 × 10^6
% inhibition vs control ([10]; Iclaprim 100 μg/ml): 99.9 ± 0.07%
Log (total parasites) ([10]; Iclaprim 100 μg/ml): 3.3
Total parasites (× 10^6) ([10]; Iclaprim 100 μg/ml): 0.002 ± 0.001 × 10^6
Change in average log10 CFU/gr of Abscess from Controls [11]: −0.79 log10 CFU/gr
